Experimental findings from patent US10413518B2, “CYP450 lipid metabolites reduce inflammation and angiogenesis” (Massachusetts Eye and Ear Infirmary, priority 2013, dated 2019) are described below.

Test [1] concerns peripheral blood leukocytes (PBLs) on P-selectin and ICAM-1. Put plainly: Autoperfused microflow chamber assay, chamber coated with P-selectin and ICAM-1. Format: in vivo. As to conditions: metabolite administered to mice with laser-induced CNV; for Leucocyte rolling: FIGS. 9A-D. The method, then: Autoperfused microflow chamber assay. Leukocyte rolling velocity was analyzed using the autoperfused microflow chamber assay.^33,43 In brief, translucent microchambers (0.4×0.04×50 mm; VitroCom) were coated overnight at 4° C. with either recombinant murine P-selectin, or combination P-selectin and ICAM1 (R&D Systems) at a concentration of 5 μg/ml each. The microchambers were then connected at both ends to biocompatible polyester tubing (PE10, Becton Dickinson). Thereafter, both the tubing and microchamber were incubated with 0.1% bovine serum albumin (Sigma-Aldrich) for 1 h to block nonspecific leukocyte interaction with their inner surfaces. The free ends of the tubing were then connected microsurgically to the right carotid artery and left jugular vein of an anesthetized mouse. In this system, blood flows from the carotid artery into the biocompatible inlet tubing, passes through the microchamber, and reenters the animal's body via the outlet tubing and jugular vein. The rate of blood flow is regulated by adjustment of the diameter of the inlet tubing with a screw valve. Microtransducers (Harvard Apparatus) attached to the chamber by three-way connectors embedded before and after the microchamber allow the continuous measurement of blood pressure. The analog output of the microtransducers unit was digitalized with an A/D converter (ML785 PowerLab/8SP, ADInstruments) connected to a PC computer running CHART V7 software (ADInstruments). The measured values at the inlet and outlet of the microchamber were used to calculate the pressure drop (ΔP). […] Ten different fields of view were recorded for at least 30 seconds. Leukocyte rolling velocity was determined from the displacement of individual cells interacting with the chamber surface over time (Δd/Δt). The displacement of leukocytes was determined using image J software 1.46 (NIH). Flux was defined as the number of interacting leukocytes per field of view, averaged over 10 independent field of views. To account for the hemodynamic conditions within the chamber, the blood pressure before the inlet and after the outlet of the chamber was measured, from which the drop of pressure Δp and the shear stress were derived

Test [2] relates to laser-induced CNV. In words: Laser-induced CNV, lesion size in choroidal flat-mounts stained with isolectin B4. The format is in vivo, mice. Particulars: 7 days after CNV induction; for Protection from laser-induced CNV (choroidal flatmount): intraperitoneal daily, 5 or 50 μg/kg/day, vs vehicle. The method, then:
(§1) Laser-induced model of CNV. Laser photocoagulation was performed 2 weeks after the onset of feeding with the ω-3 or ω-6 LCPUFA diets with the use of a 532-nm laser (Oculight GLx Laser System, IRIDEX) attached to a slitlamp, with a coverslip being used to applanate the cornea in order to afford a view of the posterior pole of the eye. Four lesions located at the 3, 6, 9, and 12 o'clock meridians centered on the optic nerve (size and leakage studies) or 10 lesions (protein and mRNA analysis) were induced in both eyes with the same settings: spot size of 100 μm, pulse duration of 0.1 s, and laser power of 100 mW.^25 The lesions were located two or three disc diameters from the optic nerve. Laser-induced disruption of Bruch's membrane was identified by the appearance of a bubble at the site of photocoagulation. […] One investigator executed all laser photocoagulation.
Choroid flat-mount preparation. For evaluation of the size of CNV lesions, mice were anesthetized with Avertin (Sigma) and sacrificed by cervical dislocation at 5 or 7 days after laser photocoagulation. The eyes were removed and fixed in 4% paraformaldehyde for 60 min at room temperature, the cornea and lens were removed, and the entire retina was carefully dissected from the eyecup. Radial cuts (average, eight) were made from the edge of the eyecup to the equator, and the preparation was then washed with ice-cold PBS containing 0.3% Tween 20.^41 For visualization of vessels, the eyecup was stained overnight at room temperature with Alexa Fluor 488—conjugated Griffonia (Bandeiraea) simplicifolia isolectin B4 (Invitrogen) at a dilution of 1:100. The eyecup was flat-mounted on Superfrost/Plus microscope slides (Fisher) in SlowFade Antifade reagent (Invitrogen) with the sclera facing down and the choroid facing up. Fluorescence images of choroidal flat-mounts were captured with a Zeiss AxioCam MRm camera and Zeiss AxioObserver.Z1 microscope. The CNV area was measured with the use of Image J software.

For test [3], the system named is laser-induced CNV. Put plainly: Laser-induced CNV, cross-sectional lesion area by SD-OCT. The format is in vivo, mice. As to conditions: 7 days after CNV induction; for Protection from laser-induced CNV (SD-OCT): intraperitoneal daily, 5 or 50 μg/kg/day, vs vehicle. The protocol: as §1
Spectral domain optical coherence tomography (SD-OCT). SD-OCT was performed with a Bioptigen system at 5 and 7 days after laser photocoagulation. Mice were anesthetized with Avertin (Sigma) and positioned on a custom cassette that allowed three-dimensional free rotation for alignment of the eye for imaging. Hydration with normal saline was used to preserve corneal clarity. The B-scan were performed with 100 horizontal, raster, and consecutive B-scan lines, each one composed of 1000 A-scans. The area size was 1.4 by 1.4 mm. The software was able to generate an en face fundus image with the reflectance information obtained from the OCT sections (volume intensity projection), so that a point-to-point correlation between OCT and fundus position was possible and accurate. For evaluation of the cross-sectional size of each lesion in OCT images, the sections passing through the center of the CNV were chosen. […] We narrowed and positioned it to the level of the retinal pigment epithelium—choroid complex, so that the area of the retinal pigment epithelium—Bruch's membrane rupture was readily identifiable in the fundus image as a hyporeflective spot.^25

The subject of the next test is CD18. Put plainly: Flow cytometric analysis of CD18 on PBLs. Format: in vivo, mice. Particulars: metabolite administered, laser-induced CNV model. The method, then:
(§2) Isolation of PBLs for flow cytometric analysis. Blood freshly collected from the mouse heart with an EDTA-treated syringe was incubated for 30 min on ice with phycoerythrin-conjugated rat monoclonal antibodies to CD11b (M1/70, BD Biosciences) or to CD18 (C71/16, BD Biosciences), or with isotype control antibodies, at a ratio of 1 μg per 1×10^6 total cells. Red blood cells were lysed with the use of Easy-Lyse (Leinco Technologies), and the remaining cells were isolated by centrifugation and resuspended in PBS on ice for immediate flow cytometric analysis. PBLs were gated according to their characteristic forward and side scatter with the use of a Cytomics FC500 instrument (Beckman Coulter), and data were analyzed with FlowJo 10.0 software […].
On the technique in general: In flow cytometry, cells or beads pass a laser one at a time.

The subject of test [4] is laser-induced CNV. In words: Laser-induced CNV, vascular leakage by fluorescein angiography. The format is in vivo, mice. As to conditions: 7 days after CNV induction; for Vascular leakage after CNV induction: intraperitoneal daily, 5 or 50 μg/kg/day, vs vehicle. The method, then:
as §1
Fluorescein angiography. Fluorescein angiography was performed with a camera and imaging system (TRC 50 VT camera and IMAGEnet 1.53 system,
Topcon) at 5 and 7 days after laser photocoagulation. Photographs were captured with a 20-diopter lens in contact with the fundus camera lens after intraperitoneal injection of 0.1 ml of 2% fluorescein sodium (Akorn). […] Lesions were graded according to a previously established scheme as follows: 0 (not leaky), faint hyperfluorescence or mottled fluorescence without leakage; 1 (questionable leakage), hyperfluorescent lesion without progressive increase in size or intensity; 2A (leaky), hyperfluorescence increasing in intensity but not in size; 2B (clinically significant leakage), hyperfluorescence increasing in intensity and in size.^42

For the next test, the system named is CD11b. In words: Flow cytometric analysis of CD11b on PBLs. The format is in vivo, mice. As to conditions: metabolite administered, laser-induced CNV model. The protocol:
as §2

A further test has as its system PPARγ. Put plainly: PPARγ activity in retinal nuclear extracts (ELISA-based TransAM kit). Format: in vivo. As to conditions: ω-3-fed mice, IP daily 1 mg/kg, 7 days after CNV induction. The protocol: Measurement of PPARγ activity. The retinas (n=8) of mice were pooled to reduce biological variability and were homogenized in an ice-cold hypotonic buffer (ActiveMotif) for preparation of a nuclear fraction. The nuclear extract (20 μg of protein) was assayed for PPARγ activity with the use of an ELISA-based TransAM kit (ActiveMotif).
On the technique in general: In an ELISA, binding on a coated surface is turned into a signal by an enzyme label.

Setting [5] is: ω-3 LCPUFA diet, IP daily 1 mg/kg.

In the case of `CCCCC/C=C\C/C=C\CC1OC1C/C=C\CCCC(=O)O` (stereo not shown) [8,9-EET, reference compound], the Leucocyte rolling entry in test [1] is “increased leucocyte rolling”.
Same read-out and setting: the same measure for `CCCCC/C=C\C[C@H]1O[C@H]1C/C=C\C/C=C\CCCC(=O)O` [11,12-EET, reference compound]: “increased leucocyte rolling”; for `CCCCCC1OC1C/C=C\C/C=C\C/C=C\CCCC(=O)O` (stereo not shown) [14,15-EET, reference compound]: “increased leucocyte rolling”.
With `CCC1OC1C/C=C\C/C=C\C/C=C\C/C=C\CCCC(=O)O` (stereo not shown) [17,18-EEQ, 17,18-epoxyeicosatetraenoic acid], the “Protection from laser-induced CNV (choroidal flatmount)” value in the test on laser-induced CNV [2] is “significant and dose-dependent protection”. Besides, in the test on laser-induced CNV [3], the “Protection from laser-induced CNV (SD-OCT)” value is “significant and dose-dependent protection”. Also, the “CD18 in peripheral blood leukocytes” value in the test with CD18 is “suppresses”. Moreover, the “Vascular leakage after CNV induction” value in the test on laser-induced CNV [4] is listed as “significantly decreased”. Besides, in test [1], the “Systemic leukocyte recruitment during CNV” value is recorded as “reduces” and the Leucocyte rolling entry is “decreased rolling”.
`CCC1OC1CC=CCC=CCC=CCC=CCC=CCCC(=O)O` (stereo not shown) [19,20-EDP, 19,20-epoxydocosapentaenoic acid]: the “Protection from laser-induced CNV (choroidal flatmount)” value in the test on laser-induced CNV [2] is “significant protection”. Further, in the test on laser-induced CNV [3], the “Protection from laser-induced CNV (SD-OCT)” value was “significant protection”. Further, the “CD11b in peripheral blood leukocytes” value in the test on CD11b was “suppresses”. Besides, the “Vascular leakage after CNV induction” value with laser-induced CNV [4] is “significant protection”. In test [1], the “Systemic leukocyte recruitment during CNV” value was “reduces” and the Leucocyte rolling entry is on record as “decreased rolling”.
For `O=C(Nc1ccccc1)c1cc([N+](=O)[O-])ccc1Cl` [GW9662, reference compound], the “Effect on the protective effects of ω3-LCPUFAs on CNV size (choroidal flat-mount)” value in the test on laser-induced CNV [2] (setting [5]) is recorded as “significantly reduces”. Further, in the test with laser-induced CNV [3] (setting [5]), the “Effect on the protective effects of ω3-LCPUFAs on CNV size (SD-OCT)” value was “significantly reduces”. For the same compound, the “Effect on the protective effects of ω3-LCPUFAs on leakage” value in the test with laser-induced CNV [4] (setting [5]) is given as “significantly reduces”. The “Activity of PPARγ in the retina” value with PPARγ is “significantly reduces”.
